In publication PMC6610665, “On the potential of in vitro organ-chip models to define temporal pharmacokinetic-pharmacodynamic relationships” (Scientific Reports, 2019):
Like-named read-outs stand apart in the source and are kept apart here.

Experiments:
[1] = set-up: method as in PMID 18587422, PMID 16581270; conditions: Guinea pig; assumed for FPD simulation; cited from earlier work
[2] = heart:liver model, 5 µM terfenadine, mean ± SD
Protocol: (§1) All drugs were separated using gradient elution methodology on a C18 phase (Agilent Zorbax Eclipse Plus, 4.6 mm, 100 mm length, 3 µm particle diameter) with binary mobile phase. Samples (50 µL) were diluted with acetonitrile and centrifuged to precipitate proteins after addition of the internal standard. The MS was set to positive ion mode and multiple reactive monitoring with nitrogen used for collision induced dissociation.

[3] = heart only model, 5 µM terfenadine
Protocol: as §1

[4] = test system: hiPS-CMs; assay: Heart only MPS model, field potential duration (FPD) by MEA; format: cell-based, human; conditions: 5 µM terfenadine
[5] = set-up: method as in PMID 18587422, PMID 16581270; conditions: dog; assumed for FPD simulation; cited from earlier work
[6] = set-up: method as in PMID 18587422, PMID 16581270; conditions: human; assumed for FPD simulation; cited from earlier work
[7] = Heart only and heart:liver chip PKPD model (Phoenix NLME 7.0)
Protocol: Heart, liver, media, and PDMS compartments and their corresponding parameters can be seen outlined in Fig. 4a.
A fifth compartment, FPD, was added to the Phoenix model to represent a PD profile linked to the defined PK model.
Using the experimental data collected (Fig. 3), parameters (except for Kint) were simultaneously fit across heart only and heart-liver systems. […] In the heart only case, the liver compartment was eliminated resulting in relevant parameters being equal to 0. Volumes of each compartment was defined by system parameters described above. The liver volume was initialized based on the system estimates but allowed to vary to account for any differences between assumed and actual cell numbers or sizes. […] Published Guinea pig[23], dog[24] and human, PK profiles were used as inputs into the established model in order to predict cardiac bioaccumulation over time, and therefore predict change in predicted FPD. While Guinea pig and dog temporal PKPD data is available in the literature, matching human data is not. […] The reported standard deviation values in PK profile were used to capture the associated error in predicted FPD values.

[8] = fit across heart only and heart:liver systems

Row | terfenadine concentration in media (peak) ([2]; 0.5 hours) [µM] | terfenadine concentration in heart chamber lysate (peak) ([2]; peak between 0.5 and 1 hours) [µM] | terfenadine concentration in liver chamber lysate (peak) ([2]; peak between 0.5 and 1 hours) [µM] | terfenadine concentration in media ([3]; 12-hour timepoint) [µM] | terfenadine concentration in media (peak) ([3]; 0.5 hours, mean ± SD) [µM] | terfenadine concentration in cardiomyocyte lysates (peak) ([3]; 4 hours, mean ± SD) [µM] | increase in FPD ([4]; 12-hour timepoint) [fold] | increase in FPD (peak measurable change) ([4]; 4 hours) [fold] | KC1 (flow medium to heart), estimate [7, 8] [min⁻¹] | KP2 (first order flow PDMS to medium), estimate [7, 8] [min⁻¹] | Kfc (metabolism of terfenadine to fexofenadine in heart compartment), estimate [7, 8] [min⁻¹] | KL2 (flow liver to medium), estimate ([7]; heart:liver system) [min⁻¹] | Kfl (metabolism of terfenadine to fexofenadine in liver compartment), estimate ([7]; heart:liver system) [min⁻¹] | tvKint (delay of fexofenadine release into the system), estimate ([7]; fit to fexofenadine concentration data, units printed n/a) | Compound | percent free protein in plasma [1] [%] | percent free protein in plasma [5] [%] | percent free protein in plasma [6] [%]
1 | 0.53 | 1.08 | 12.04 | 0.099 | 5.88 | 2.65 | 4.8 | 8 | 0.0019 | 0.00052 | 0.0009 | 0.04988 | 0.0162 | – | CC(C)(C)c1ccc(C(O)CCCN2CCC(C(O)(c3ccccc3)c3ccccc3)CC2)cc1 (centres unmarked) [terfenadine] | 3 | 2 | 3
2 | – | – | – | – | – | – | – | – | – | – | – | – | – | 0.00062 | CC(C)(C(=O)O)c1ccc(C(O)CCCN2CCC(C(O)(c3ccccc3)c3ccccc3)CC2)cc1 (centres unmarked) [fexofenadine] | – | – | –
